From patent publication US11467151B1, “Phosphorescence oxygen analyzer and uses thereof” (priority 2021, dated 2022)

Test system: striatal tissue
Experiment: Striatal cellular respiration (oxygen consumption of striatal fragments, phosphorescence oxygen analyzer)
Type: cell-based, C57BL6 male mice
Details: for effect on striatal cellular respiration (in words): in vitro, viable striatal tissue; for time over which the inhibitory effects remained relatively stable: with glucose, repeated additions of toxin (FIG. 3B, FIG. 4B)
Experimental: C57BL6 male mice (13 weeks old, about 20 g weight) were housed at 22° C. with 60% humidity and 12-h light-dark cycles. Rodent chow and filtered water were provided ad libitum. The study was approved from the UAE University Animal Research Ethics Committee (Ref. ERA-20196026). Diethyl ether was used for anesthesia.
The studied mice were not treated in any way prior to striatal tissue collection. The skin and skull were cut to expose the whole brain, which was then rapidly removed and placed in a freshly prepared Pd phosphor solution: Phosphate-buffered saline (PBS: 137 mM NaCl, 2.7 mM KCl, 4.3 mM Na2HPO4, and 1.4 mM KH2PO4, pH 7.4), 3.0 μM Pd phosphor, 0.5% fat-free albumin, with and without 5.0 mM glucose. The brain region that contained the striatum was dissected. The specimen weight was determined prior to placing it in the oxygen measuring vial that contained 2.0 mL of the Pd phosphor solution. A small portion of the specimen was stored at −80° C. for Western blot analysis.
For oxygen analysis, our previously described phosphorescence oxygen analyzer was used to monitor oxygen consumption at 25° C. in the studied striatal fragments. In reaction vials sealed from air, oxygen concentration decreased linearly with time (zero-order kinetics); the rate (k, in μM O2 min^−1) was thus the negative of d [O21/dt. The calibration reactions utilized glucose oxidase (D-glucose+O2→D-glucono-δ-lactone+H2O2) and […]. Dissolved oxygen in the solution was also depleted by the addition of glucose oxidase plus […]. Potassium cyanide (KCN, added from a stock prepared in dH2O immediately before use) inhibited respiration, confirming oxygen was consumed in cytochrome oxidase.

Structure (SMILES) | rate of respiration (k) in the presence of MPP+ (1.25 mM MPP+, Pd phosphor solution with 5.0 mM glucose, 25° C., n=3, p=0.048) | effect on striatal cellular respiration (in words) | time over which the inhibitory effects remained relatively stable | rate of respiration (k) in the presence of rotenone (10 μM rotenone, Pd phosphor solution with 5.0 mM glucose, 25° C., mean±SD, n=5, without toxin 0.141 (n=7), P=0.073)
C[n+]1ccc(-c2ccccc2)cc1.[I-] [MPP+, 1-Methyl-4-phenylpyridinium iodide] | 0.077±0.006 μM O2 min^−1 mg^−1 | inhibited | about 300 min | –
C=C(C)[C@H]1Cc2c(ccc3c2O[C@@H]2COc4cc(OC)c(OC)cc4[C@@H]2C3=O)O1 [rotenone, Rotenone] | – | inhibited | about 100 min | 0.092±0.022 μM O2 min^−1 mg^−1
